Several values for one entry are separate records, joined by “and”; a condition that tells them apart may be missing. Identical values can stand only once.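 Compound exposure: 48 hours, 5 concentrations, 96-well plates. Here, GI50 denotes the concentration required for 50% inhibition of growth. Definition used: TGI = concentration required for complete inhibition of growth.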
Assays:
Assay in all cases: growth of human tumour cells (NCI), 48 h
SNB-75 CNS = test system: SNB-75 CNS
RXF 393 renal = test system: RXF 393 renal
A549 NSCLC = test system: A549 NSCLC
OVCAR-5 ovarian = test system: OVCAR-5 ovarian
IGROV1 ovarian = test system: IGROV1 ovarian
SNB-19 CNS = test system: SNB-19 CNS
HCT-116 colon = test system: HCT-116 colon
A498 renal = test system: A498 renal
RPMI-8226 leukemia = test system: RPMI-8226 leukemia
SK-OV-3 ovarian = test system: SK-OV-3 ovarian

| Structure (SMILES) | GI50 (SNB-75 CNS) | TGI (SNB-75 CNS) | GI50 (RXF 393 renal) | TGI (RXF 393 renal) | GI50 (A549 NSCLC) | TGI (A549 NSCLC) | GI50 (OVCAR-5 ovarian) | TGI (OVCAR-5 ovarian) | GI50 (IGROV1 ovarian) | TGI (IGROV1 ovarian) | GI50 (SNB-19 CNS) | TGI (SNB-19 CNS) | GI50 (HCT-116 colon) | TGI (HCT-116 colon) | GI50 (A498 renal) | TGI (A498 renal) | GI50 (RPMI-8226 leukemia) | TGI (RPMI-8226 leukemia) | GI50 (SK-OV-3 ovarian) | TGI (SK-OV-3 ovarian) |
| --- | --- | --- | --- | --- | --- | --- | --- | --- | --- | --- | --- | --- | --- | --- | --- | --- | --- | --- | --- | --- |
| C=CCN=C(N/N=C/c1ccc([N+](=O)[O-])o1)NS(=O)(=O)c1cc(C(=O)Nc2ccccc2)c(Cl)cc1SCC(N)=O | > 100 µM | > 100 µM | 24.8 µM | > 100 µM | > 100 µM | > 100 µM | > 100 µM | > 100 µM | 32.2 µM | 97.3 µM | 33.8 µM | > 100 µM | 20.2 µM | 49 µM | 77.8 µM | > 100 µM | 20.4 µM | 55.1 µM | > 100 µM | > 100 µM |
| O=c1cccccc1[O-].O=c1cccccc1[O-].O=c1cccccc1[O-].[Sm+3] |  |  |  | 53.6 µM |  | > 100 µM |  | > 100 µM |  | > 100 µM |  | > 100 µM |  | 94.5 µM | 87.5 µM | > 100 µM |  | > 100 µM |  | > 100 µM |
| COc1cc(/C=C2\C(=O)N(C)c3ccccc32)cc(OC)c1OC | 11.5 µM | 70 µM | 0.206 µM | 5.75 µM | 26.3 µM | > 100 µM | 25.2 µM | 70.2 µM | 7.52 µM | 53.4 µM | 24.7 µM | > 100 µM | 11 µM | 30.7 µM | 33 µM | > 100 µM | 9.67 µM | 49.1 µM | 20.9 µM | > 100 µM |
| COc1ccc(Cc2nc3cc(OC)c(OC)cc3c(=O)[nH]2)cc1 | 9.79 µM | 40.1 µM | 3.95 µM | 24.3 µM | 3.61 µM | > 54.3 µM | 3.74 µM | > 74.1 µM | 4.61 µM | > 67.2 µM | 7.23 µM | > 100 µM | 4.78 µM | > 100 µM | 18.6 µM | 66.9 µM | 4.05 µM | > 100 µM | 88.5 µM | > 100 µM |
| COc1ccc(OCC(O)CN2CCN(c3ccc(Cl)cc3)CC2)cc1 (stereo not drawn) | 17 µM | 83.5 µM | 79.1 µM | > 100 µM | > 100 µM | > 100 µM | > 100 µM | > 100 µM | 18.1 µM | > 100 µM | 77.7 µM | > 100 µM | > 100 µM | > 100 µM | > 100 µM | > 100 µM | > 100 µM | > 100 µM | > 100 µM | > 100 µM |
| NC(=O)c1ncn(C2OC(CO)C(O)C2O)c1N (stereo not drawn) | > 100 µM | > 100 µM | > 100 µM | > 100 µM | > 100 µM | > 100 µM | > 100 µM | > 100 µM | > 100 µM | > 100 µM | > 100 µM | > 100 µM | > 100 µM | > 100 µM | > 100 µM | > 100 µM | > 100 µM | > 100 µM | > 100 µM | > 100 µM |
| COC(=O)C1CCC(=O)N1/C(C)=N/NC(=O)Nc1ccc(Cl)c(Cl)c1 (stereo not drawn) |  | > 100 µM |  | > 100 µM |  | > 100 µM |  |  |  | > 100 µM |  | > 100 µM |  | > 100 µM |  | > 100 µM |  | > 100 µM |  | > 100 µM |
| Clc1ccc2c(NCCCN3CCN(c4nc(N5CCOCC5)nc5ccccc45)CC3)ccnc2c1 | 1.85 µM | 3.3 µM | 1.65 µM | 3.1 µM |  |  | 2.5 µM | 6.34 µM |  |  |  |  | 1.25 µM | 2.59 µM | 1.57 µM | 3.11 µM | 1.15 µM | 3.46 µM |  |  |
| COc1ccc(/C=C/C(C)=N/OCC(=O)Nc2ccc(Cl)cc2)cc1 | 3.21 µM | 32.6 µM | 4.09 µM | 21.4 µM | 3.06 µM | 45.6 µM | 5.45 µM | > 77.3 µM | 3.42 µM | 51.6 µM | 3.16 µM | > 60.1 µM | 1.99 µM | 9.39 µM | 2.54 µM | 16.6 µM | 1.89 µM | 6.21 µM | 5.27 µM | 42.4 µM |
| Fc1ccc(-c2nn3c(COc4ccc(Cl)cc4)nnc3s2)cc1Oc1ccccc1 | 61 µM | > 100 µM | 26.3 µM | 87.5 µM | 21.9 µM | > 100 µM | 24.5 µM | > 59.1 µM | 22.2 µM | > 54.1 µM | 30.2 µM | > 58.5 µM | 20.6 µM | > 52.3 µM | 15.3 µM | 51.8 µM | 13.9 µM | 29 µM | 78.9 µM | > 100 µM |
| COc1cc(N(CCC#N)CCC#N)ccc1/C(N=Nc1ccc(C(=O)O)cc1)=N/NC(=O)c1cc(Br)ccc1O | 57.2 µg/mL | 130 µg/mL | 66.3 µg/mL | > 150 µg/mL | 79.4 µg/mL | > 150 µg/mL |  |  | 78.1 µg/mL | > 150 µg/mL | > 150 µg/mL | > 150 µg/mL | 62.8 µg/mL | > 150 µg/mL | > 150 µg/mL | > 150 µg/mL | 127 µg/mL | > 150 µg/mL | 86.2 µg/mL | > 150 µg/mL |
| C=C1CC/C=C(\C)CC[C@H](C(=C)C)[C@@H](O)/C=C(/CO)CCC1O (stereo partly drawn) | > 100 µM | > 100 µM | 89.9 µM | > 100 µM | 74.4 µM | > 100 µM | > 100 µM | > 100 µM | 44.9 µM | > 100 µM | > 100 µM | > 100 µM | 35.4 µM | > 100 µM | > 100 µM | > 100 µM | 32 µM | 71.6 µM | > 100 µM | > 100 µM |
| CC1OC(OC2C(O[C@H]3CC[C@@]4(C)C(=CC[C@H]5[C@@H]6C[C@@H]7O[C@]8(CC[C@@H](C)CO8)[C@@H](C)[C@@H]7[C@@]6(C)CC[C@@H]54)C3)OC(CO)C(OC3OC(CO)C(O)C3O)C2O)C(O)C(O)C1O (stereo partly drawn) |  | 1.62 µM | 0.294 µM | 1.83 µM and 0.962 µM | 0.203 µM | 1.3 µM and 0.367 µM | 1.32 µM | 1.53 µM and 2.59 µM | 0.45 µM | 1.61 µM and 1.62 µM | 0.649 µM | 1.48 µM and 1.82 µM | 1.26 µM | 1.6 µM and 2.52 µM | 0.733 µM | 1.62 µM and 1.98 µM | 0.212 µM | 2.71 µM and 0.586 µM | 1.29 µM | 1.76 µM and 2.55 µM |

From PubChem BioAssay (NCI)
